The results in this text go back to patent US20240368214A1, “POSITIVE NMDA-MODULATING COMPOUNDS AND METHODS OF USE THEREOF” (SAGE THERAPEUTICS, INC., priority 2021, published 2024).

Where two headings read alike, the source gives them in different places.

The target of this experiment is T1, recombinant human GluN1/GluN2A receptor (Homo sapiens, UniProt Q05586+Q12879).
T1 construct: expressed in transfected cells; host or cells: HEK293, tetracycline-inducible expression
The experiment can be described thus: Whole-cell patch clamp of mammalian cells (Syncropatch 384i), NMDA modulation. The class given is cell-based. Particulars: HEK293 cells, human GluN1/GluN2A, glutamate 1 μM / glycine 100 μM, -80 mV, peak amplitude increase; for EC50: read-out: EC50. In a few lines: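 HEK293 cells with tetracycline-induced (50 ng/ml, 18–24 h) human GluN1/GluN2A, automated whole-cell recording at −80 mV, pH 7.4 external. After 120 s compound pre-incubation, compound applied with glutamate 1 μM/glycine 100 μM; fold peak increase (Icomp/Icontrol)−1 over 8 concentrations fitted four-parameter logistic.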

T1 sequence (Q12879 23-1464, other chains not shown): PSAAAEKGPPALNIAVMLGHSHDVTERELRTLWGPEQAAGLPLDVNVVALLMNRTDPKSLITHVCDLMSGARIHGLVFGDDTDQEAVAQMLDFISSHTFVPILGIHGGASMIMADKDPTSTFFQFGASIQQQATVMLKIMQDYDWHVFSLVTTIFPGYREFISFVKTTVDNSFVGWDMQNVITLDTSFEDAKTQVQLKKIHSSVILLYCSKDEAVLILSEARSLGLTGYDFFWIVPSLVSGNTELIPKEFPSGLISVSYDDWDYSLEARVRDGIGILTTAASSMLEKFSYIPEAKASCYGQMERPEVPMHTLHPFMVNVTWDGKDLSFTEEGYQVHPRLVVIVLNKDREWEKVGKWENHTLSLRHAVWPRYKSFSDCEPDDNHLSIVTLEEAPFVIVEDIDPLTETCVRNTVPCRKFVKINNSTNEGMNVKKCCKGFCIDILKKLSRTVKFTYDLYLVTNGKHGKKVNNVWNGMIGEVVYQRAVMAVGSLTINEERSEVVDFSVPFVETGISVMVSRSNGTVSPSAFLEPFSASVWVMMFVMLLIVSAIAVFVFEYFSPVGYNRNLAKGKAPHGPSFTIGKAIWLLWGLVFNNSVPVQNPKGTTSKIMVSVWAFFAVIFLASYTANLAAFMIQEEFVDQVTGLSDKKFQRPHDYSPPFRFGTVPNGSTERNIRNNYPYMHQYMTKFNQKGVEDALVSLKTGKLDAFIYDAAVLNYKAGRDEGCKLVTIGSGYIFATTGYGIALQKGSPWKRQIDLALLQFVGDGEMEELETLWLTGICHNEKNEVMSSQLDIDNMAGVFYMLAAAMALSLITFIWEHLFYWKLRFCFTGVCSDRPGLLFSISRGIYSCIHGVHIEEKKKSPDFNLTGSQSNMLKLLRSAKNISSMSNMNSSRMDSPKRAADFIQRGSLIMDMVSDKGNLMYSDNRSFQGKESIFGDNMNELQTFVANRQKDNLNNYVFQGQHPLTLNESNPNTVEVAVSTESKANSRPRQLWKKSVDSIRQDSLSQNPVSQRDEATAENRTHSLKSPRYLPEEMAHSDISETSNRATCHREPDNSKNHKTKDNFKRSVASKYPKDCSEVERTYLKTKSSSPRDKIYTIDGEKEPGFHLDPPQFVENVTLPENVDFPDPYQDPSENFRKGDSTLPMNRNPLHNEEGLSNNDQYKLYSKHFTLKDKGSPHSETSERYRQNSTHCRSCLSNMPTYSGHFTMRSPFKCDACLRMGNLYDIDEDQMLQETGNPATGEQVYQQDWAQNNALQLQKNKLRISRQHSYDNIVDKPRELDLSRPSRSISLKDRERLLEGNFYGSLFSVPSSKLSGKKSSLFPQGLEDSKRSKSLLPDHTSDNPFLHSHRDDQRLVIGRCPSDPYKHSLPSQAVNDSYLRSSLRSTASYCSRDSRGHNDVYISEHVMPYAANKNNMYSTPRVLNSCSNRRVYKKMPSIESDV

For `CC[C@]12CC[C@H]3[C@@H](CC=C4C[C@@](C)(O)CC[C@@]43C)[C@@H]1CC[C@@H]2[C@H](C)CC[C@@H](O)C(C)C` [Compound F-4, (3S,8S,9S,10R,13R,14S,17R)-13-ethyl-17-((2R,5R)-5-hydroxy-6-methylheptan-2-yl)-3,10-dimethyl-2,3,4,7,8,9,10,11,12,13,14,15,16,17-tetradecahydro-1H-cyclopenta[a]phenanthren-3-ol], the EC50 (as a rule, the concentration needed to bring the measured effect to its halfway point) (Table F-2) was 100 to 500 nM.
For the compound `CC[C@]1(O)CC[C@@]2(C)C(=CC[C@H]3[C@@H]4CC[C@H]([C@H](C)CC[C@H](O)C(C)C)[C@@]4(CC)CC[C@@H]32)C1` [Compound F-5, (3S,8S,9S,10R,13R,14S,17R)-3,13-diethyl-17-((2R,5S)-5-hydroxy-6-methylheptan-2-yl)-10-methyl-2,3,4,7,8,9,10,11,12,13,14,15,16,17-tetradecahydro-1H-cyclopenta[a]phenanthren-3-ol], the EC50 (Table F-2) fell in the range of 100 to 500 nM.
On to `CC[C@]1(O)CC[C@@]2(C)[C@@H](CC[C@@H]3[C@@H]2CC[C@]2(CC)[C@@H]([C@H](C)CC[C@H](O)C(C)C)CC[C@@H]32)C1` [Compound F-6, (3S,5S,8R,9S,10S,13R,14S,17R)-3,13-diethyl-17-((2R,5S)-5-hydroxy-6-methylheptan-2-yl)-10-methylhexadecahydro-1H-cyclopenta[a]phenanthren-3-ol], for which the EC50 (Table F-2) is 100 to 500 nM.
Regarding `CC[C@]1(O)CC[C@@]2(C)[C@@H](CC[C@@H]3[C@@H]2CC[C@]2(CC)[C@@H]([C@H](C)CC[C@@H](O)C(C)C)CC[C@@H]32)C1` [Compound F-7, (3S,5S,8R,9S,10S,13R,14S,17R)-3,13-diethyl-17-((2R,5R)-5-hydroxy-6-methylheptan-2-yl)-10-methylhexadecahydro-1H-cyclopenta[a]phenanthren-3-ol], the concentration giving a half-maximal response (EC50) (Table F-2) was in the range of 100 to 500 nM.
Consider `CC[C@]1(O)CC[C@@]2(C)[C@@H](CC[C@H]3[C@@H]4CC[C@H]([C@H](C)CC[C@H](O)C(C)C)[C@H]4CC[C@@H]32)C1` [Compound F-8, (3S,5S,8S,9S,10S,13R,14R,17R)-3-ethyl-17-((2R,5S)-5-hydroxy-6-methylheptan-2-yl)-10-methylhexadecahydro-1H-cyclopenta[a]phenanthren-3-ol], for which the concentration for a half-maximal effect (EC50) (Table F-2) lay in the range of 100 to 500 nM.
Consider `CC[C@]1(O)CC[C@@]2(C)[C@@H](CC[C@H]3[C@@H]4CC[C@H]([C@H](C)CC[C@@H](O)C(C)C)[C@H]4CC[C@@H]32)C1` [Compound F-9, (3S,5S,8S,9S,10S,13R,14R,17R)-3-ethyl-17-((2R,5R)-5-hydroxy-6-methylheptan-2-yl)-10-methylhexadecahydro-1H-cyclopenta[a]phenanthren-3-ol], for which the EC50 (Table F-2) lay within 100 to 500 nM.
Still for that read-out and setting: with `CC[C@]1(O)CC[C@@]2(C)C(=CC[C@H]3[C@@H]4CC[C@H]([C@H](C)CC[C@@H](O)C(C)C)[C@H]4CC[C@@H]32)C1` [Compound F-10, (3S,8S,9S,10R,13R,14R,17R)-3-ethyl-17-((2R,5R)-5-hydroxy-6-methylheptan-2-yl)-10-methyl-2,3,4,7,8,9,10,11,12,13,14,15,16,17-tetradecahydro-1H-cyclopenta[a]phenanthren-3-ol] the figure was 100 to 500 nM; with `CC[C@]1(O)CC[C@@]2(C)C(=CC[C@H]3[C@@H]4CC[C@H]([C@H](C)CC[C@@H](O)C(C)C)[C@@]4(CC)CC[C@@H]32)C1` [Compound F-14, (3S,8S,9S,10R,13R,14S,17R)-3,13-diethyl-17-((2R,5R)-5-hydroxy-6-methylheptan-2-yl)-10-methyl-2,3,4,7,8,9,10,11,12,13,14,15,16,17-tetradecahydro-1H-cyclopenta[a]phenanthren-3-ol], 100 to 500 nM.
`CC[C@]1(O)CC[C@H]2[C@@H](CC[C@@H]3[C@@H]2CC[C@]2(C)[C@@H]([C@H](C)CC[C@](C)(O)C(F)(F)F)CC[C@@H]32)C1` [Compound G-1, (3S,5S,8R,9R,10S,13R,14S,17R)-3-ethyl-13-methyl-17-((2R,5S)-6,6,6-trifluoro-5-hydroxy-5-methylhexan-2-yl)hexadecahydro-1H-cyclopenta[a]phenanthren-3-ol]: where the note is “Table G-2”, the maximal response (Emax) – broadly, the size of the effect at its maximum, as opposed to the concentration needed – is more than 200% and the EC50 lay within 1 to 100 nM.
Regarding `CC[C@]1(O)CC[C@H]2[C@@H](CC[C@@H]3[C@@H]2CC[C@]2(C)[C@@H]([C@H](C)CC[C@@](C)(O)C(F)(F)F)CC[C@@H]32)C1` [Compound G-2, (3S,5S,8R,9R,10S,13R,14S,17R)-3-ethyl-13-methyl-17-((2R,5R)-6,6,6-trifluoro-5-hydroxy-5-methylhexan-2-yl)hexadecahydro-1H-cyclopenta[a]phenanthren-3-ol], for the setting “Table G-2”, the maximal effect (Emax) lay in the range of 100 to 200% and the EC50 lay within 500 to 1000 nM.
With `CC[C@]1(O)CC[C@@]2(CC)[C@@H](CC[C@H]3[C@@H]4CC[C@H]([C@H](C)CCCC(C)(C)O)[C@@]4(C)CC[C@@H]32)C1` [Compound G-3, (3S,5S,8S,9S,10S,13R,14S,17R)-3,10-diethyl-17-((R)-6-hydroxy-6-methylheptan-2-yl)-13-methylhexadecahydro-1H-cyclopenta[a]phenanthren-3-ol], where the note is “Table G-2”, the maximal effect (Emax) was in the range of 100 to 200% and the EC50 was 1 to 100 nM.
For the compound `CC[C@]1(O)CC[C@@]2(CC)[C@@H](CC[C@H]3[C@@H]4CC[C@H]([C@H](C)CC[C@@](C)(O)C(F)(F)F)[C@@]4(C)CC[C@@H]32)C1` [Compound G-4, (3S,5S,8S,9S,10S,13R,14S,17R)-3,10-diethyl-13-methyl-17-((2R,5R)-6,6,6-trifluoro-5-hydroxy-5-methylhexan-2-yl)hexadecahydro-1H-cyclopenta[a]phenanthren-3-ol], where the note is “Table G-2”, the maximal response (Emax) was in the range of 100 to 200% and the EC50 lay in the range of 100 to 500 nM.
For the compound `CC[C@]1(O)CC[C@@]2(CC)[C@@H](CC[C@H]3[C@@H]4CC[C@H]([C@H](C)CC[C@](C)(O)C(F)(F)F)[C@@]4(C)CC[C@@H]32)C1` [Compound G-5, (3S,5S,8S,9S,10S,13R,14S,17R)-3,10-diethyl-13-methyl-17-((2R,5S)-6,6,6-trifluoro-5-hydroxy-5-methylhexan-2-yl)hexadecahydro-1H-cyclopenta[a]phenanthren-3-ol], where the note is “Table G-2”, the Emax is more than 200% and the concentration giving a half-maximal response (EC50) was 1 to 100 nM.
On to `C[C@H](CC[C@](C)(O)C(F)(F)F)[C@H]1CCC[C@H]2[C@@H]3CC=C4C[C@@](C)(O)CC[C@]4(C)[C@H]3CC[C@]12C` [Compound H-1, (2S,4aR,4bS,6aR,7R,10aS,10bS)-2,4a,6a-trimethyl-7-((2R,5S)-6,6,6-trifluoro-5-hydroxy-5-methylhexan-2-yl)-1,2,3,4,4a,4b,5,6,6a,7,8,9,10,10a,10b,11-hexadecahydrochrysen-2-ol], for which, for the setting “Table H-2”, the maximum response (Emax) fell in the range of 100 to 200% and the EC50 was 500 to 1000 nM.
`C[C@H](CCC1(O)CCC(C)(C)CC1)[C@H]1CCC[C@H]2[C@@H]3CC[C@H]4C[C@](O)(C(F)(F)F)CC[C@]4(C)[C@H]3CC[C@]12C` [Compound H-3, (2S,4aS,4bS,6aR,7R,10aS,10bR,12aS)-7-((R)-4-(1-hydroxy-4,4-dimethylcyclohexyl)butan-2-yl)-4a,6a-dimethyl-2 (trifluoromethyl)octadecahydrochrysen-2-ol]: the EC50 (Table H-2) was more than 1000 nM.
Take `CC[C@]1(O)CC[C@@]2(C)[C@@H](CC[C@@H]3[C@@H]2CC[C@]2(C)[C@@H]([C@H](C)CCCC(C)(C)O)CCC[C@@H]32)C1` [Compound H-4, (2S,4aS,4bS,6aR,7R,10aS,10bR,12aS)-2-ethyl-7-((R)-6-hydroxy-6-methylheptan-2-yl)-4a,6a-dimethyloctadecahydrochrysen-2-ol]: where the note is “Table H-2”, the Emax fell in the range of 100 to 200% and the EC50 lay in the range of 100 to 500 nM.
With `CC[C@]1(O)CC[C@@]2(C)C(=CC[C@H]3[C@@H]4CCC[C@H]([C@H](C)CC[C@H](O)C(C)C)[C@@]4(C)CC[C@@H]32)C1` [Compound H-5, (2S,4aR,4bS,6aR,7R,10aS,10bS)-2-ethyl-7-((2R,5S)-5-hydroxy-6-methylheptan-2-yl)-4a,6a-dimethyl-1,2,3,4,4a,4b,5,6,6a,7,8,9,10,10a,10b,11-hexadecahydrochrysen-2-ol], for the setting “Table H-2”, the EC50 lay within 100 to 500 nM.
As for `CC[C@]1(O)CC[C@@]2(C)C(=CC[C@H]3[C@@H]4CCC[C@H]([C@H](C)CC[C@@H](O)C(C)C)[C@@]4(C)CC[C@@H]32)C1` [Compound H-6, (2S,4aR,4bS,6aR,7R,10aS,10bS)-2-ethyl-7-((2R,5R)-5-hydroxy-6-methylheptan-2-yl)-4a,6a-dimethyl-1,2,3,4,4a,4b,5,6,6a,7,8,9,10,10a,10b,11-hexadecahydrochrysen-2-ol], where the note is “Table H-2”, the maximal effect (Emax) was less than 100% and the half-maximal effective concentration (EC50) fell in the range of 1 to 100 nM.
With `CC(C)[C@@H](O)CC[C@@H](C)[C@H]1CCC[C@H]2[C@@H]3CC=C4C[C@@](C)(O)CC[C@]4(C)[C@H]3CC[C@]12C` [Compound H-7, (2S,4aR,4bS,6aR,7R,10aS,10bS)-7-((2R,5S)-5-hydroxy-6-methylheptan-2-yl)-2,4a,6a-trimethyl-1,2,3,4,4a,4b,5,6,6a, 7,8,9,10,10a, 10b,11-hexadecahydrochrysen-2-ol], under “Table H-2”, the EC50 fell in the range of 100 to 500 nM.
For `CC(C)[C@H](O)CC[C@@H](C)[C@H]1CCC[C@H]2[C@@H]3CC=C4C[C@@](C)(O)CC[C@]4(C)[C@H]3CC[C@]12C` [Compound H-8, (2S,4aR,4bS,6aR,7R,10aS,10bS)-7-((2R,5R)-5-hydroxy-6-methylheptan-2-yl)-2,4a,6a-trimethyl-1,2,3,4,4a,4b,5,6,6a, 7,8,9,10,10a,10b,11-hexadecahydrochrysen-2-ol], under “Table H-2”, the maximal response (Emax) is less than 100% and the EC50 was in the range of 100 to 500 nM.
